Assay results published in ChEMBL document CHEMBL1201862, “PubChem BioAssay data set” (2004).
Active and inactive are the calls of the source.

Columns and labels:
[1] = target: E3 ubiquitin-protein ligase Mdm2 (Homo sapiens, UniProt Q00987); assay: MDM2-luc reporter signal enhancers, multi-concentration potency testing, MDM2 ubiquitin-protein ligase inhibitor program, whole-cell format, luminescence detection, 384-well microplate (AID 1394); assay type: functional;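 also: MDM2 E3 inhibitors raise luminescence so EC50 is for signal enhancement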
Sequence of E3 ubiquitin-protein ligase Mdm2 (Q00987 whole entry): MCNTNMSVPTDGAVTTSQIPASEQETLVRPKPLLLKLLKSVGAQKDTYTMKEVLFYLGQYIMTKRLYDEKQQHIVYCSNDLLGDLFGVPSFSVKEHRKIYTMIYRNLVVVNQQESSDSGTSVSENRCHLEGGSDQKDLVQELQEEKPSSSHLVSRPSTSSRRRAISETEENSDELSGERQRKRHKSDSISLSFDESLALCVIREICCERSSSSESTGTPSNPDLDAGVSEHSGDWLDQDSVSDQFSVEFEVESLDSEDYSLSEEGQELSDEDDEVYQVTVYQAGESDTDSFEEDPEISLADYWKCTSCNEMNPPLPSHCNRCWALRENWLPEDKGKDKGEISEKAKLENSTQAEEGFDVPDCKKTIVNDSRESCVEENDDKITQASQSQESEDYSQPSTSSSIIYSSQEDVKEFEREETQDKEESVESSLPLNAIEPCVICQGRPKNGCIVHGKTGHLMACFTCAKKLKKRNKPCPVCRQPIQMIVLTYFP

[2] = target: Transthyretin (Homo sapiens, UniProt P02766); assay: Luminescence-based cell-based high throughput dose response assay to identify activators of Transthyretin (TTR) transcription.; assay type: functional
[3] = IGROV1 cell killing – plate reader, dry powder samples, PAX8 inhibitor project, dose response (AID 743043); assay type: functional, cell-based; details: IGROV-1
[4] = target: Paired box protein Pax-8 (Homo sapiens, UniProt Q06710); assay: PAX8 transcriptional activity inhibition in RMG-I – RMG-I cells, luciferase, cherry-pick, dose response (AID 687027); assay type: functional, cell-based;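 also: luciferase reporter driven by Pax8 target thyroperoxidase promoter measured by SteadyGlo luminescence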
Sequence of Paired box protein Pax-8 (Q06710 whole entry): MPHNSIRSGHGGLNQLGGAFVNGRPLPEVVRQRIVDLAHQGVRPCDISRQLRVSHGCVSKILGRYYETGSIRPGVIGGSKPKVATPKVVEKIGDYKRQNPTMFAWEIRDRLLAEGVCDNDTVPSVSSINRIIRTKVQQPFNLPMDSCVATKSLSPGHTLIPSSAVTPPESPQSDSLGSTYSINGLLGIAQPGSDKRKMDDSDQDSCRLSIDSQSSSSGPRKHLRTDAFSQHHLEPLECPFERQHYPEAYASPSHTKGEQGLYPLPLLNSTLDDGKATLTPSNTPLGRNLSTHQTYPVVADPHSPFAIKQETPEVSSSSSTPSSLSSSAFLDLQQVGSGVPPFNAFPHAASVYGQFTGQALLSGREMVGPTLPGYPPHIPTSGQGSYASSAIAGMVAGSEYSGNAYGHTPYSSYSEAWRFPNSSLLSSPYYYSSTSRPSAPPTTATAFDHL

[5] = P. falciparum Dd2 growth inhibitors, dose response, SYBR Green, cherry-picked samples (AID 1159567); assay type: functional, cell-based
[6] = OVCAR-3 cell viability loss – plate reader, dry powder samples, PAX8 inhibitor project, dose response (AID 743044); assay type: functional, cell-based
[7] = OVCAR8 cell viability loss – plate reader, dry powder samples, PAX8 project, dose response (AID 743197); assay type: functional, cell-based; details: OVCAR-8
[8] = toxicity toward immortalized ovarian surface epithelium – cell-based, plate reader, dry powder samples, cytotoxicity control for PAX8 inhibitor project, dose response (AID 743045); assay type: functional
[9] = toxicity to human hepatoma HepG2 cells – cell-based, cherry-picked samples, cytotoxicity control, dose response (AID 1159577); assay type: functional
[10] = A2780 cell killing – plate reader, dry powder samples, cytotoxicity control, dose response (AID 743046); assay type: functional, cell-based
[11] = Potency on glucagon-like peptide 1 release, dose-response in NCI-H716 cell line, half maximal inhibitory concentration (AID 1117344); assay type: functional, cell-based
[12] = glucagon-like peptide-1 release potency in STC-1, concentration-response, half-maximal inhibitory concentration in the STC-1 line (AID 1117345); assay type: functional, cell-based
[13] = cells; assay type: functional, cell-based; details: INS-1E
[14] = IC50 of insulin release inhibition, rat insulinoma INS-1E line, 5 mM glucose, cell-based (AID 1117331); assay type: functional

Q: With COc1ccccc1N1CCN(C(c2ccc(C)cc2)c2nnnn2C(C)C)CC1 (centres undefined) as the molecule, how does the EC50 [1] read?
A: The EC50 was 14.5 µM (not active).

Q: Which EC50 [2] does the source give for CCn1ncc(/C=N\NC(=O)c2csc3ccccc23)c1C here?
A: The EC50 was > 167 µM (inactive).

Q: Which AC50 [3] does the source give for O=C(Nc1cccc(F)c1)N1CCCCN2[C@@H](CO)[C@H](c3ccc(C#Cc4ccccc4)cc3)[C@@H]2C1 here?
A: Its AC50 is 29.4 µM (active).

Q: What about the AC50 [4] of the same molecule?
A: Its AC50 is 9.89 µM (active).

Q: What about the AC50 [5] of the same molecule?
A: The AC50 was < 0.3 µM (active).

Q: What about the AC50 [6] of the same molecule?
A: Its AC50 is 17.2 µM (active).

Q: What about the AC50 [7] of the same molecule?
A: Its AC50 is 65.6 µM (active).

Q: And the AC50 [8]?
A: Its AC50 is 63.4 µM (active).

Q: And the AC50 [9]?
A: Its AC50 is 7.6 µM (active).

Q: What about the AC50 [10] of the same molecule?
A: Its AC50 is 19.8 µM (active).

Q: Which IC50 [11] does the source give for Nc1cc(C(F)(F)F)ccc1S here?
A: The IC50 was 15.3 µM (inactive).

Q: What about the IC50 [12] of the same molecule?
A: Its IC50 is 1.16 µM (active).

Q: For Nc1c2c(nc3ccccc13)CCCC2 [TACRINE], which IC50 [13] is on record?
A: Its IC50 is > 33.3 µM (inactive).

Q: What about the IC50 [14] of the same molecule?
A: Its IC50 is 17.6 µM (inactive).
